The values that follow come from ChEMBL document CHEMBL2157940, “Low molecular weight phosphotyrosine protein phosphatases as emerging targets for the design of novel therapeutic agents” (J Med Chem, 2012).

Assay [1] has as its target T1, Low molecular weight phosphotyrosine protein phosphatase (Bos taurus) (UniProt P11064).
T1 sequence (whole entry): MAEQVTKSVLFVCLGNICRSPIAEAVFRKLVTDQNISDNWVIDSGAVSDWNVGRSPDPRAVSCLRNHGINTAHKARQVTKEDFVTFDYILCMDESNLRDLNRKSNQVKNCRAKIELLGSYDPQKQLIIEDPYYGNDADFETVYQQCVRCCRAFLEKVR
In words: Inhibition of bovine kidney LMW-PTPase at 400 uM using pNPP substrate.

A short description of assay [2]: Inhibition of Mycobacterium tuberculosis LMW-PTP.
Assay [3] concerns the target T2, Low molecular weight phosphotyrosine protein phosphatase (Homo sapiens, UniProt P24666).
T2 sequence (P24666 whole entry): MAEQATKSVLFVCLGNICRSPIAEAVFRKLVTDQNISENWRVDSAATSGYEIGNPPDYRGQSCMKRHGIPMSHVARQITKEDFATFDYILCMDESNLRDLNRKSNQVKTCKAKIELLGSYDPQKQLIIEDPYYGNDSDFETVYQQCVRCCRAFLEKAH
In words: Inhibition of human LMW-PTPase isoform 1.

Assay [4] has as its target T3, Tyrosine-protein phosphatase non-receptor type 1 (Homo sapiens, UniProt P18031).
T3 sequence (P18031 whole entry): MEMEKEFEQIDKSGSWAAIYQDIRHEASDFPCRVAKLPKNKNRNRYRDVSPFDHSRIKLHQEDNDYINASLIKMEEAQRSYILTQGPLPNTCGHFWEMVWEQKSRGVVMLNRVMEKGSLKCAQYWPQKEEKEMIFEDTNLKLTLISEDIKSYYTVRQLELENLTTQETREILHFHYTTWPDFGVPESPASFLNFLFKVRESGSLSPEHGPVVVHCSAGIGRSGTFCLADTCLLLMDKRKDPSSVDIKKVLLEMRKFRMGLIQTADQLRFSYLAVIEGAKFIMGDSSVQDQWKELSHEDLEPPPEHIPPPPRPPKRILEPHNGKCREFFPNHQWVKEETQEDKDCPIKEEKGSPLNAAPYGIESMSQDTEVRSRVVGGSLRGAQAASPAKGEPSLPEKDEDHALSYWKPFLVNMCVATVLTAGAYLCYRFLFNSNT
In words: Inhibition of human PTP1B.

Assay [5] concerns the target T1, Low molecular weight phosphotyrosine protein phosphatase (Bos taurus). The experiment in a line: Activation of bovine kidney LMW-PTPase at 400 uM using pNPP substrate.
The target in assay [6] is T2, Low molecular weight phosphotyrosine protein phosphatase. The experiment in a line: Inhibition of human LMW-PTPase isoform 2.

Consider `O=c1c(O)c(-c2ccc(O)cc2O)oc2cc(O)cc(O)c12`, for which the inhibition in assay [1] is 35%.
In turn, `C/C(=C1\C=CC=N1)c1ccc(-c2ccc[nH]2)o1` returned an IC50 in assay [2] of 9.4 µM.
In the case of `O=C(O)c1ccc(COc2ccc(/C=C3\S/C(=N\c4ccccc4)N(Cc4ccc(C(=O)O)cc4)C3=O)cc2)cc1`, the IC50 in assay [3] is 5.8 µM; in assay [4], 0.55 µM.
As to `O=c1c(O)c(-c2cc(O)c(O)c(O)c2)oc2cc(O)cc(O)c12`, the inhibition in assay [1] came out at 14%.
For the compound `CCCCCCCCCCCCC[C@H]1OC(=O)[C@H](COCc2ccccc2)NC(=O)[C@H]([C@@H](C)O)NC(=O)[C@H](C(C)C)NC(=O)[C@H]1C`, the IC50 in assay [2] stood at 8.8 µM.
In assay [5], `O=c1c(O)c(-c2ccc(O)c(O)c2)oc2cc(O)cc(O)c12` displayed a fold change (FC) of 2.6.
On to `Nc1ccccc1CCP(=O)(O)O`, for which the IC50 is 250 µM in assay [3] and 1400 µM in assay [6].
With `Nc1ccncc1CCP(=O)(O)O`, the IC50 was determined as 300 µM in assay [3] and 2210 µM in assay [6].
`O=C(CCc1ccc(O)cc1)c1c(O)cc(O)cc1O`: the inhibition in assay [1] was 14%.
In assay [1], `C[C@@H]1O[C@@H](OC[C@H]2O[C@@H](Oc3c(-c4ccc(O)c(O)c4)oc4cc(O)cc(O)c4c3=O)[C@H](O)[C@@H](O)[C@@H]2O)[C@H](O)[C@H](O)[C@H]1O` came in with an inhibition of 14%.
Consider `O=P(O)(O)CCc1cccc2ccccc12`, for which the results for the IC50 in assay [3] and in assay [6] were 14000 µM and 10000 µM, respectively.
`O=C(O)c1ccc(COc2cccc(/C=C3\S/C(=N\c4ccccc4)N(Cc4ccc(C(=O)O)cc4)C3=O)c2)cc1`: the IC50 in assay [3] is 0.5 µM; in assay [6], 0.22 µM.
Regarding `Nc1ccccc1/C=C/P(=O)(O)O`, the results for the IC50 in assay [3] and in assay [6] were 5300 µM and 13000 µM, respectively.
`Oc1cc(O)c2c(c1)OC(c1ccc(O)c(O)c1)C(O)C2` (configuration not stated) had an inhibition in assay [1] of 14%.
Turning to `O=P(O)(O)CCc1cncc2cc[nH]c12`, the IC50 in assay [3] was determined as 1790 µM; in assay [6], 2760 µM.

By inhibition is commonly meant the drop in the measured response relative to a control, in per cent. A low value points to a weak effect. Usually IC50 stands for the midpoint of a concentration-inhibition curve. A lower IC50 goes with higher potency.
